In test [1] the target is T1, Sulfotransferase 1A1 (Homo sapiens, UniProt P50225). As to the kind of experiment: Binding affinity to human SULT1A1 expressed in Escherichia coli assessed as change in intrinsic fluorescence. In kind it is ADME.
Test [2] concerns the target T1, Sulfotransferase 1A1. As to the kind of experiment: Binding affinity to human SULT1A1 expressed in Escherichia coli assessed as change in intrinsic fluorescence in presence of 3',5'-phosphoadenosine. The class given is ADME.
For test [3], the target named is T1, Sulfotransferase 1A1. As to the kind of experiment: Inhibition of human SULT1A1 expressed in Escherichia coli assessed as 17beta-estradiol sulfation at 100 nM by Michaelis-Menten equation analysis.
The target in test [4] is T1, Sulfotransferase 1A1. Description: Inhibition of human SULT1A1 expressed in Escherichia coli assessed as p-nitrophenol sulfation at 100 nM by Michaelis-Menten equation analysis.
The target of test [5] is T1, Sulfotransferase 1A1. Description: Inhibition of human SULT1A1 expressed in Escherichia coli assessed as beta-naphthol sulfation at 100 nM by Michaelis-Menten equation analysis.
Test [6] addresses T1, Sulfotransferase 1A1. As to the kind of experiment: Inhibition of SULT1A1 in human MCF7 cells assessed as 17beta-estradiol sulfation. The class given is cell-based.

T1 sequence (P50225 whole entry): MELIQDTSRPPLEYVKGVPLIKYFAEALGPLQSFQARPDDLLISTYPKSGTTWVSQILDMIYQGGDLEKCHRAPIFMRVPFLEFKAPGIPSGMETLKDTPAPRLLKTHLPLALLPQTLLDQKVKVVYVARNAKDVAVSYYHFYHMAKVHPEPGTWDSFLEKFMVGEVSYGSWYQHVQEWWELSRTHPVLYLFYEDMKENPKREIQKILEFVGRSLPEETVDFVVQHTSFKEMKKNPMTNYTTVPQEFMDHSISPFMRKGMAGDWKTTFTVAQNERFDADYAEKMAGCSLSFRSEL

The term Kd denotes a measure of binding affinity in units of concentration. In the case of `C[C@]12CC[C@@H]3c4ccc(O)cc4CC[C@H]3[C@@H]1CC[C@@H]2O` [ESTRADIOL], the equilibrium dissociation constant (Kd) on Sulfotransferase 1A1 [1] is 2300 nM; at Sulfotransferase 1A1 [2] it was 1200 nM.

By Ki is commonly meant a dissociation constant, usually derived from enzyme kinetics or from competition with a known ligand. Usually IC50 stands for the point on the concentration scale where inhibition reaches its midpoint. For `C#C[C@]1(O)CC[C@H]2[C@@H]3CCc4cc(O)ccc4[C@H]3CC[C@@]21C` [ETHINYL ESTRADIOL], the Kd stood at 500 nM on Sulfotransferase 1A1 [1] and 4.3 nM on Sulfotransferase 1A1 [2]. Besides, the Ki on Sulfotransferase 1A1 [3] came out at 14.9 nM; on Sulfotransferase 1A1 [4], 8.9 nM; on Sulfotransferase 1A1 [5], 19 nM. In addition, the IC50 at Sulfotransferase 1A1 [6] worked out at 20 nM.

Values taken from ChEMBL document CHEMBL3525919, “Potent inhibition of human sulfotransferase 1A1 by 17α-ethinylestradiol: role of 3'-phosphoadenosine 5'-phosphosulfate binding and structural rearrangements in regulating inhibition and activity” (Drug Metab Dispos, 2012).
